Laboratory results from PubChem BioAssay (NCI).
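Values below derive from 48-hour exposures of cells grown in 96-well plates, with endpoints linearly interpolated between the two concentrations bracketing the appropriate inhibition level. At the TGI there is no net growth.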

Tests used:
Test in all cases: NCI anticancer screen, dose series, 48 h
HOP-62 NSCLC = system: HOP-62 NSCLC
SN12C renal = system: SN12C renal
HT29 colon = system: HT29 colon
M14 melanoma = system: M14 melanoma
OVCAR-5 ovarian = system: OVCAR-5 ovarian
786-0 renal = system: 786-0 renal
SF-268 CNS = system: SF-268 CNS
IGROV1 ovarian = system: IGROV1 ovarian
HCT-15 colon = system: HCT-15 colon
OVCAR-8 ovarian = system: OVCAR-8 ovarian
A498 renal = system: A498 renal
MOLT-4 leukemia = system: MOLT-4 leukemia
RXF 393 renal = system: RXF 393 renal
HS 578T breast = system: HS 578T breast
U251 CNS = system: U251 CNS
SR leukemia = system: SR leukemia
HCC-2998 colon = system: HCC-2998 colon
SK-OV-3 ovarian = system: SK-OV-3 ovarian
TK-10 renal = system: TK-10 renal
MDA-MB-435 = system: MDA-MB-435
LOX IMVI melanoma = system: LOX IMVI melanoma
K-562 leukemia = system: K-562 leukemia
COLO 205 colon = system: COLO 205 colon
SW-620 colon = system: SW-620 colon
UACC-62 melanoma = system: UACC-62 melanoma
NCI-H226 lung = system: NCI-H226 lung
SNB-75 CNS = system: SNB-75 CNS
DU-145 prostate = system: DU-145 prostate
MCF7 breast = system: MCF7 breast
UO-31 renal = system: UO-31 renal
UACC-257 melanoma = system: UACC-257 melanoma
NCI/ADR-RES ovarian = system: NCI/ADR-RES ovarian
HCT-116 colon = system: HCT-116 colon
OVCAR-3 ovarian = system: OVCAR-3 ovarian
SK-MEL-28 melanoma = system: SK-MEL-28 melanoma
NCI-H522 lung = system: NCI-H522 lung
CAKI-1 renal = system: CAKI-1 renal
SK-MEL-2 melanoma = system: SK-MEL-2 melanoma
SF-295 CNS = system: SF-295 CNS
SK-MEL-5 melanoma = system: SK-MEL-5 melanoma
SF-539 CNS = system: SF-539 CNS
BT-549 breast = system: BT-549 breast
NCI-H23 lung = system: NCI-H23 lung
MDA-MB-231 breast = system: MDA-MB-231 breast
PC-3 prostate = system: PC-3 prostate
MDA-N = system: MDA-N
KM12 colon = system: KM12 colon
HOP-92 NSCLC = system: HOP-92 NSCLC
ACHN renal = system: ACHN renal
NCI-H460 lung = system: NCI-H460 lung
SNB-19 CNS = system: SNB-19 CNS
OVCAR-4 ovarian = system: OVCAR-4 ovarian
MALME-3M melanoma = system: MALME-3M melanoma
EKVX NSCLC = system: EKVX NSCLC
CCRF-CEM leukemia = system: CCRF-CEM leukemia
HL-60(TB) leukemia = system: HL-60(TB) leukemia
A549 NSCLC = system: A549 NSCLC
RPMI-8226 leukemia = system: RPMI-8226 leukemia

COc1c(C)c(OC)c2c(c1O)[C@@H]1[C@@H]3Cc4c(OC)c(C)c(OC)c(O)c4[C@H](CNC(=O)c4ccc5ccccc5n4)N3[C@@H](C#N)[C@H](C2)N1C
TGI (HOP-62 NSCLC): 0.0104 µM | TGI (SN12C renal): > 0.1 µM | TGI (HT29 colon): 0.00491 µM | TGI (M14 melanoma): 0.00267 µM | TGI (OVCAR-5 ovarian): 0.00353 µM | TGI (786-0 renal): 0.00791 µM | TGI (SF-268 CNS): 0.0305 µM | TGI (IGROV1 ovarian): 0.000858 µM | TGI (HCT-15 colon): > 0.0597 µM | TGI (OVCAR-8 ovarian): > 0.1 µM | TGI (A498 renal): 0.00411 µM | TGI (MOLT-4 leukemia): 0.0144 µM | TGI (RXF 393 renal): 0.00347 µM | TGI (HS 578T breast): 0.00741 µM | TGI (U251 CNS): > 0.1 µM | TGI (SR leukemia): 0.000329 µM | TGI (HCC-2998 colon): 0.0007 µM | TGI (SK-OV-3 ovarian): > 0.1 µM | TGI (TK-10 renal): 0.0023 µM | TGI (MDA-MB-435): 0.00438 µM | TGI (LOX IMVI melanoma): > 0.1 µM | TGI (K-562 leukemia): > 0.1 µM | TGI (COLO 205 colon): > 0.1 µM | TGI (SW-620 colon): 0.00251 µM | TGI (UACC-62 melanoma): 0.00236 µM | TGI (NCI-H226 lung): 0.00571 µM | TGI (SNB-75 CNS): 0.0143 µM | TGI (DU-145 prostate): > 0.0296 µM | TGI (MCF7 breast): > 0.1 µM | TGI (UO-31 renal): 0.00879 µM | TGI (UACC-257 melanoma): 0.00546 µM | TGI (NCI/ADR-RES ovarian): > 0.052 µM | TGI (HCT-116 colon): 0.00585 µM | TGI (OVCAR-3 ovarian): 0.0023 µM | TGI (SK-MEL-28 melanoma): 0.00592 µM | TGI (NCI-H522 lung): 0.000444 µM | TGI (CAKI-1 renal): 0.0384 µM | TGI (SK-MEL-2 melanoma): 0.000832 µM | TGI (SF-295 CNS): > 0.0214 µM | TGI (SK-MEL-5 melanoma): 0.00186 µM | TGI (SF-539 CNS): 0.00774 µM | TGI (BT-549 breast): 0.00172 µM | TGI (NCI-H23 lung): 0.00187 µM | TGI (MDA-MB-231 breast): > 0.0276 µM | TGI (PC-3 prostate): > 0.0514 µM | TGI (MDA-N): 0.00283 µM | TGI (KM12 colon): 0.00227 µM | TGI (HOP-92 NSCLC): 0.00322 µM | TGI (ACHN renal): > 0.1 µM | TGI (NCI-H460 lung): > 0.0901 µM | TGI (SNB-19 CNS): > 0.1 µM | TGI (OVCAR-4 ovarian): 0.00742 µM | TGI (MALME-3M melanoma): 0.000743 µM

Nc1nc(Cl)c(/C=N\O)c(NCC2(CO)CC(=O)C2)n1
TGI (HOP-62 NSCLC): > 100 µM | TGI (SN12C renal): > 100 µM | TGI (HT29 colon): > 100 µM | TGI (OVCAR-5 ovarian): > 100 µM | TGI (786-0 renal): > 100 µM | TGI (SF-268 CNS): > 100 µM | TGI (IGROV1 ovarian): 70.4 µM | TGI (HCT-15 colon): > 100 µM | TGI (OVCAR-8 ovarian): > 100 µM | TGI (A498 renal): > 100 µM | TGI (MOLT-4 leukemia): > 100 µM | TGI (RXF 393 renal): > 100 µM | TGI (HS 578T breast): 55.6 µM | TGI (U251 CNS): > 100 µM | TGI (EKVX NSCLC): > 100 µM | TGI (CCRF-CEM leukemia): > 100 µM | TGI (HCC-2998 colon): > 100 µM | TGI (TK-10 renal): > 100 µM | TGI (HL-60(TB) leukemia): > 100 µM | TGI (MDA-MB-435): > 100 µM | TGI (LOX IMVI melanoma): > 100 µM | TGI (K-562 leukemia): > 100 µM | TGI (COLO 205 colon): > 100 µM | TGI (SW-620 colon): > 100 µM | TGI (NCI-H226 lung): > 100 µM | TGI (SNB-75 CNS): > 100 µM | TGI (A549 NSCLC): > 100 µM | TGI (DU-145 prostate): > 100 µM | TGI (MCF7 breast): > 100 µM | TGI (UO-31 renal): > 100 µM | TGI (UACC-257 melanoma): > 100 µM | TGI (NCI/ADR-RES ovarian): > 100 µM | TGI (HCT-116 colon): > 100 µM | TGI (OVCAR-3 ovarian): > 100 µM | TGI (SK-MEL-28 melanoma): > 100 µM | TGI (NCI-H522 lung): > 100 µM | TGI (CAKI-1 renal): > 100 µM | TGI (SF-295 CNS): > 100 µM | TGI (SK-MEL-5 melanoma): > 100 µM | TGI (SF-539 CNS): > 100 µM | TGI (BT-549 breast): > 100 µM | TGI (NCI-H23 lung): > 100 µM | TGI (MDA-MB-231 breast): > 100 µM | TGI (PC-3 prostate): > 100 µM | TGI (MDA-N): > 100 µM | TGI (KM12 colon): 82.1 µM | TGI (HOP-92 NSCLC): > 100 µM | TGI (ACHN renal): > 100 µM | TGI (NCI-H460 lung): > 100 µM | TGI (SNB-19 CNS): > 100 µM | TGI (RPMI-8226 leukemia): > 100 µM | TGI (OVCAR-4 ovarian): > 100 µM | TGI (MALME-3M melanoma): > 100 µM

CCOC(=O)CC1c2ccc(O)cc2OC(=O)C1c1ccc(N)cc1 (stereo not given)
TGI (HOP-62 NSCLC): > 100 µM | TGI (SN12C renal): > 100 µM | TGI (HT29 colon): > 100 µM | TGI (M14 melanoma): > 100 µM | TGI (786-0 renal): > 100 µM | TGI (SF-268 CNS): > 100 µM | TGI (IGROV1 ovarian): > 100 µM | TGI (HCT-15 colon): > 100 µM | TGI (OVCAR-8 ovarian): > 100 µM | TGI (A498 renal): > 100 µM | TGI (MOLT-4 leukemia): > 100 µM | TGI (RXF 393 renal): > 100 µM | TGI (HS 578T breast): > 100 µM | TGI (U251 CNS): > 100 µM | TGI (EKVX NSCLC): > 100 µM | TGI (SR leukemia): > 100 µM | TGI (CCRF-CEM leukemia): > 100 µM | TGI (HCC-2998 colon): > 100 µM | TGI (SK-OV-3 ovarian): > 100 µM | TGI (TK-10 renal): > 100 µM | TGI (MDA-MB-435): > 100 µM | TGI (LOX IMVI melanoma): > 100 µM | TGI (K-562 leukemia): > 100 µM | TGI (COLO 205 colon): > 100 µM | TGI (SW-620 colon): > 100 µM | TGI (UACC-62 melanoma): > 100 µM | TGI (NCI-H226 lung): > 100 µM | TGI (SNB-75 CNS): > 100 µM | TGI (A549 NSCLC): > 100 µM | TGI (DU-145 prostate): > 100 µM | TGI (MCF7 breast): > 100 µM | TGI (UO-31 renal): > 100 µM | TGI (UACC-257 melanoma): > 100 µM | TGI (NCI/ADR-RES ovarian): > 100 µM | TGI (HCT-116 colon): > 100 µM | TGI (OVCAR-3 ovarian): > 100 µM | TGI (SK-MEL-28 melanoma): > 100 µM | TGI (NCI-H522 lung): > 100 µM | TGI (CAKI-1 renal): > 100 µM | TGI (SK-MEL-2 melanoma): > 100 µM | TGI (SF-295 CNS): > 100 µM | TGI (SK-MEL-5 melanoma): > 100 µM | TGI (SF-539 CNS): > 100 µM | TGI (BT-549 breast): > 100 µM | TGI (NCI-H23 lung): > 100 µM | TGI (MDA-MB-231 breast): > 100 µM | TGI (PC-3 prostate): > 100 µM | TGI (MDA-N): > 100 µM | TGI (KM12 colon): > 100 µM | TGI (ACHN renal): > 100 µM | TGI (NCI-H460 lung): > 100 µM | TGI (SNB-19 CNS): > 100 µM | TGI (RPMI-8226 leukemia): > 100 µM | TGI (MALME-3M melanoma): > 100 µM
